Here are results for 23 compounds from patent publication US20120196824A1, “THERAPEUTIC AGENT FOR CEREBRAL INFARCTION” (MITSUBISHI TANABE PHARMA CORPORATION, priority 2009, published 2012).

For orientation: IC50 means the midpoint of a concentration-inhibition curve.

Structures can show the parent of a compound that is named as a salt.

T1 sequence (P23526 whole entry): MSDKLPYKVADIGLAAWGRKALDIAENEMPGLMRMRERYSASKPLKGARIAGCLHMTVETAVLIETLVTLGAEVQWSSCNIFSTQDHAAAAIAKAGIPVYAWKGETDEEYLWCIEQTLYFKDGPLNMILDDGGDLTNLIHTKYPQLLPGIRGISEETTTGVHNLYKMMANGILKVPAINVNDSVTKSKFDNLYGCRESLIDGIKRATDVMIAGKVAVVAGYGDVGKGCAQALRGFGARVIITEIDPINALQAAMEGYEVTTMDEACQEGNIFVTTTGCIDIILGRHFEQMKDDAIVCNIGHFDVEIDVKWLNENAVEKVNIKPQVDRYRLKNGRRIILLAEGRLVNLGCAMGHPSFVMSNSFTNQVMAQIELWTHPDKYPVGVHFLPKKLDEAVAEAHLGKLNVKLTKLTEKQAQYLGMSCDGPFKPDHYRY

The assay has as its target T1, Human-recombinant-S-Adenosyl-L-Homocysteine Hydrolase (Homo sapiens, UniProt P23526).
T1 construct: purchased Diazyme Laboratories
Description: Measurement of enzyme inhibitory activity (hydrolysis of S-Adenosyl-L-Homocysteine, HPLC). It counts as biochemical. Conditions: S-Adenosyl-L-Homocysteine 10 μM, pH 7.2, 37° C., 15 min. The method, then:
The enzyme inhibitory activity of the compounds of the Examples was measured using the hydrolysis activity of S-Adenosyl-L-Homocysteine as an index. The measurement method was modification of the method of Henry H. Richards et al. (J. Biol. Chem. 253, 4476-4480, 1978). That is, S-Adenosyl-L-Homocysteine (10 μM) and Adenosine Deaminase (Roche) (4 units) were added to 50 mM phosphate buffer (pH 7.2, containing 1 mM EDTA) with the total amount being 200 μl, and to the solution were added a test substance and then Human-recombinant-S-Adenosyl-L-Homocysteine Hydrolase (50 ng, Diazyme Laboratories) to start the reaction, and the mixture was incubated at 37° C. for 15 min. The reaction was quenched by the addition of 1N aqueous perchloric solution (20 μl), and the mixture was centrifuged under the conditions of 10000 rpm, 5 min, 4° C. The supernatant was collected, and the amount of S-Adenosyl-L-Homocysteine after the reaction was quantified by HPLC. The column used was a reversed-phase column. The detailed conditions of HPLC were as follows.
column used: Wakopak^R HandyODS 150*4.6 mm (Wako Pure Chemical Industries, Ltd.) elution condition: 1.0 ml/min elution solvent: 0.1M acetate buffer (pH 4.0) containing 10 mM 1-heptanesulfonic acid containing 4% acetonitrile wavelength: 258 nm (UV) The inhibitory rate was determined with the amount of decrease in S-Adenosyl-L-Homocysteine before and after the reaction without using the test substance as 100%.
Inhibitory rate (%)={(amount of decrease of S-Adenosyl-L-Homocysteine in the presence of test substance)/(amount of decrease of S-Adenosyl-L-Homocysteine in the absence of test substance)}×100
Consider `Cc1noc(-c2ccc(C)c(N(CC(=O)NCCNC(C)C)CC(=O)N(C)N3Cc4ccccc4C3)c2)n1` [Example 84, N^2-{2-[1,3-dihydro-2H-isoindol-2-yl(methyl)amino]-2-oxoethyl}-N^2-[2-methyl-5-(3-methyl-1,2,4-oxadiazol-5-yl)phenyl]-N^1-[2-(isopropylamino)ethyl]glycinamide], for which the IC50 turned out to be 34 nM.

As for `CCNCCNC(=O)CN(CC(=O)N(C)N1Cc2ccccc2C1)c1cc2cn(CC)nc2cc1C` [Example 247, N^2-{2-[1,3-dihydro-2H-isoindol-2-yl(methyl)amino]-2-oxoethyl}-N^2-(2-ethyl-6-methyl-2H-indazol-5-yl)-N^1-[2-(ethylamino)ethyl]glycinamide hydrochloride], the IC50 was found to be 15 nM.

Consider `CCNCCNC(=O)CN(CC(=O)N(C)N1Cc2ccccc2C1)c1cc2c(cc1C)N(CC)C(=O)CC2` [Example 177, N^2-{2-[1,3-dihydro-2H-isoindol-2-yl(methyl)amino]-2-oxoethyl}-N^2-(1-ethyl-7-methyl-2-oxo-1,2,3,4-tetrahydroquinolin-6-yl)-N^1-[2-(ethylamino)ethyl]glycinamide], for which the concentration for half-maximal inhibition (IC50) is 46 nM.

In the case of `CCNCCNC(=O)CN(CC(=O)N(C)N1Cc2ccc(F)cc2C1)c1ccc(-c2noc(C)n2)cc1C` [Example 204, N^2-{2-[(5-fluoro-1,3-dihydro-2H-isoindol-2-yl)(methyl)amino]-2-oxoethyl}-N^2-[2-methyl-4-(5-methyl-1,2,4-oxadiazol-3-yl)phenyl]-N^1-[2-(ethylamino)ethyl]glycinamide], the IC50 was 65 nM.

As to `CCNCCNC(=O)CN(CC(=O)N(C)N1Cc2ccccc2C1)c1cc(-c2noc(C(F)(F)F)n2)ccc1C` [Example 287, N^2-{2-[1,3-dihydro-2H-isoindol-2-yl(methyl)amino]-2-oxoethyl}-N^2-{2-methyl-5-[5-(trifluoromethyl)-1,2,4-oxadiazol-3-yl]phenyl}-N^1-[2-(ethylamino)ethyl]glycinamide dihydrochloride], the IC50 amounted to 58 nM.

In the case of `CCNCCNC(=O)CN(CC(=O)N(C)N1Cc2ccccc2C1)c1cc2cn(C)nc2cc1C` [Example 243, N^2-{2-[1,3-dihydro-2H-isoindol-2-yl(methyl)amino]-2-oxoethyl}-N^2-(2,6-dimethyl-2H-indazol-5-yl)-N^1-[2-(ethylamino)ethyl]glycinamide hydrochloride], the IC50 stood at 7 nM.

As to `CCNCCNC(=O)CN(CC(=O)N(C)N1Cc2cccc(F)c2C1)c1cc(-c2noc(C)n2)ccc1C` [Example 19, N^2-{2-[(4-fluoro-1,3-dihydro-2H-isoindol-2-yl)(methyl)amino]-2-oxoethyl}-N^2-[2-methyl-5-(5-methyl-1,2,4-oxadiazol-3-yl)phenyl]-N^1-[2-(ethylamino)ethyl]glycinamide], the IC50 was 33 nM.

Turning to `CCNCCNC(=O)CN(CC(=O)N(C)N1Cc2ccc(F)cc2C1)c1ccc(-c2nc(C(N)=O)cs2)cc1C` [Example 308, N^2-{4-[4-(aminocarbonyl)-1,3-thiazol-2-yl]-2-methylphenyl}-N^2-{2-[(5-fluoro-1,3-dihydro-2H-isoindol-2-yl)(methyl)amino]-2-oxoethyl}-N^1-[2-(ethylamino)ethyl]glycinamide dihydrochloride], the half-inhibitory concentration (IC50) was determined as 26 nM.

Turning to `CCNCCNC(=O)CN(CC(=O)N(C)N1Cc2ccc(F)cc2C1)c1cc(-c2nc(C)no2)ccc1C` [Example 87, N^2-{2-[(5-fluoro-1,3-dihydro-2H-isoindol-2-yl)(methyl)amino]-2-oxoethyl}-N^2-[2-methyl-5-(3-methyl-1,2,4-oxadiazol-5-yl)phenyl]-N^1-[2-(ethylamino)ethyl]glycinamide], the IC50 is 18 nM.

Consider `Cc1cc2onc(C)c2cc1N(CC(=O)NC[C@@H]1CCCN1)CC(=O)N(C)N1Cc2ccccc2C1` [Example 328, N^2-{2-[1,3-dihydro-2H-isoindol-2-yl(methyl)amino]-2-oxoethyl}-N^2-(3,6-dimethyl-1,2-benzisoxazol-5-yl)-N^1-[(2S)-pyrrolidin-2-ylmethyl]glycinamide dihydrochloride], for which the half-inhibitory concentration (IC50) turned out to be 150 nM.

In the case of `CCNCCNC(=O)CN(CC(=O)N(C)N1Cc2ccccc2C1)c1ccc(N2CCCC2=O)cc1C` [Example 298, N^2-{2-[1,3-dihydro-2H-isoindol-2-yl(methyl)amino]-2-oxoethyl}-N^2-[2-methyl-4-(2-oxopyrrolidin-1-yl)phenyl]-N^1-[2-(ethylamino)ethyl]glycinamide dihydrochloride], the IC50 worked out at 50 nM.

Regarding `Cc1cc2oc(=O)n(C)c2cc1N(CC(=O)NCCNC(C)C)CC(=O)N(C)N1Cc2ccccc2C1` [Example 190, N^2-{2-[1,3-dihydro-2H-isoindol-2-yl(methyl)amino]-2-oxoethyl}-N^2-(3,6-dimethyl-1,3-benzoxazol-2(3H)-on-5-yl)-N^1-[2-(isopropylamino)ethyl]glycinamide], the IC50 was 88 nM.

As for `CCNCCNC(=O)CN(CC(=O)N(C)N1Cc2ccccc2C1)c1cc2c(cc1C)oc(=O)n2C` [Example 191, N^2-{2-[1,3-dihydro-2H-isoindol-2-yl(methyl)amino]-2-oxoethyl}-N^2-(3,6-dimethyl-1,3-benzoxazol-2(3H)-on-5-yl)-N^1-[2-(ethylamino)ethyl]glycinamide], the IC50 amounted to 51 nM.

Take `CCNCCNC(=O)CN(CC(=O)N(C)N1Cc2ccccc2C1)c1ccc(-c2nc(C(N)=O)co2)cc1C` [Example 309, N^2-{4-[4-(aminocarbonyl)-1,3-oxazol-2-yl]-2-methylphenyl}-N^2-{2-[1,3-dihydro-2H-isoindol-2-yl(methyl)amino]-2-oxoethyl}-N^1-[2-(ethylamino)ethyl]glycinamide dihydrochloride]: the IC50 was 23 nM.

For the compound `CCNCCNC(=O)CN(CC(=O)N(C)N1Cc2ccccc2C1)c1ccc(-c2ccc(C(N)=O)cn2)cc1C` [Example 301, N^2-{4-[5-(aminocarbonyl)pyridin-2-yl]-2-methylphenyl}-N^2-{2-[1,3-dihydro-2H-isoindol-2-yl(methyl)amino]-2-oxoethyl}-N^1-[2-(ethylamino)ethyl]glycinamide dihydrochloride], the IC50 was found to be 37 nM.

In the case of `CCNCCNC(=O)CN(CC(=O)N(C)C1Cc2ccccc2C1)c1cc(-c2noc(C)n2)ccc1C` [Example 26, N^2-{2-[2,3-dihydro-1H-inden-2-yl(methyl)amino]-2-oxoethyl}-N^2-[2-methyl-5-(5-methyl-1,2,4-oxadiazol-3-yl)phenyl]-N^1-[2-(ethylamino)ethyl]glycinamide], the IC50 came to 56 nM.

Regarding `Cc1nc(-c2ccc(C)c(N(CC(=O)NCCNC(C)C)CC(=O)N(C)N3Cc4ccccc4C3)c2)no1` [Example 15, N^2-{2-[1,3-dihydro-2H-isoindol-2-yl(methyl)amino]-2-oxoethyl}-N^2-[2-methyl-5-(5-methyl-1,2,4-oxadiazol-3-yl)phenyl]-N^1-[2-(isopropylamino)ethyl]glycinamide], the IC50 was 17 nM.

For `CCNCCNC(=O)CN(CC(=O)N(C)N1Cc2ccccc2C1)c1cc2oc(=O)n(C)c2cc1C` [Example 193, N^2-{2-[1,3-dihydro-2H-isoindol-2-yl(methyl)amino]-2-oxoethyl}-N^2-(3,5-dimethyl-1,3-benzoxazol-2(3H)-on-6-yl)-N^1-[2-(ethylamino)ethyl]glycinamide], the IC50 was determined as 29 nM.

Take `CCNCCNC(=O)CN(CC(=O)N(C)N1Cc2ccccc2C1)c1ccc(C(C)=O)cc1C` [Example 210, N^2-(4-acetyl-2-methylphenyl)-N^2-{2-[1,3-dihydro-2H-isoindol-2-yl(methyl)amino]-2-oxoethyl}-N^1-[2-(ethylamino)ethyl]glycinamide]: the IC50 was 34 nM.

As for `CCNCCNC(=O)CN(CC(=O)N(C)N1Cc2ccccc2C1)c1cc2c(C)noc2cc1C` [Example 181, N^2-{2-[1,3-dihydro-2H-isoindol-2-yl(methyl)amino]-2-oxoethyl}-N^2-(3,6-dimethyl-1,2-benzisoxazol-5-yl)-N^1-[2-(ethylamino)ethyl]glycinamide], the IC50 is 16 nM.

As for `CCNCCNC(=O)CN(CC(=O)N(C)N1Cc2ccc(F)cc2C1)c1ccc(C(C)=O)cc1C` [Example 211, N^2-(4-acetyl-2-methylphenyl)-N^2-{2-[(5-fluoro-1,3-dihydro-2H-isoindol-2-yl)(methyl)amino]-2-oxoethyl}-N^1-[2-(ethylamino)ethyl]glycinamide], the IC50 was 51 nM.

In the case of `CCNCCNC(=O)CN(CC(=O)N(C)N1Cc2ccccc2C1)c1cc2c(cc1C)CN(CC)C2=O` [Example 284, N^2-{2-[1,3-dihydro-2H-isoindol-2-yl(methyl)amino]-2-oxoethyl}-N^2-(2-ethyl-6-methyl-3-oxo-2,3-dihydro-1H-isoindol-5-yl)-N^1-[2-(ethylamino)ethyl]glycinamide dihydrochloride], the concentration for half-maximal inhibition (IC50) was found to be 33 nM.

Take `CCNCCNC(=O)CN(CC(=O)N(C)N1Cc2ccc(F)cc2C1)c1ccc(-c2nc(C)no2)cc1C` [Example 231, N^2-{2-[(5-fluoro-1,3-dihydro-2H-isoindol-2-yl)(methyl)amino]-2-oxoethyl}-N^2-[2-methyl-4-(3-methyl-1,2,4-oxadiazol-5-yl)phenyl]-N^1-[2-(ethylamino)ethyl]glycinamide]: the IC50 amounted to 46 nM.
